The structures appear in SMILES notation.

This data set in a line: Octanol-water partition coefficient, log D of the compound at pH 7.4 by shake flask method. It counts as physicochemical.
Take `Cc1cn(-c2ccc3n(c2=O)CCN(Cc2cccc4ccccc24)C3=O)cn1`: the logD was determined as 2.7.
Then `CCn1cc(CN2CCn3c(ccc(-n4cnc(C)c4)c3=O)C2=O)c2ccc(C(F)(F)F)cc21`, with 4.1.
Then `Cc1cn(-c2ccc3n(c2=O)CCN(Cc2cccc4ccc(C(F)(F)F)cc24)C3=O)cn1`, with 3.3.

By logD is commonly meant lipophilicity at a set pH, counting ionised and neutral species.

Source of the values: ChEMBL document CHEMBL3392951, “Discovery of indole-derived pyridopyrazine-1,6-dione γ-secretase modulators that target presenilin” (Bioorg Med Chem Lett, 2015).
